What all share (type): in vivo
The subject of test [1] is Eysarcoris lewisi. Kind of test: Pesticidal test against Eysarcoris lewisi, treated peanut seeds (Test Example 4). To be noted: 168 h, peanut seeds immersed 1 minute, adults, 7th day after release, read-out: rate of dead or moribund pests. How it is done:
Then, 3 to 5 seeds of peanut were immersed in the test liquid, which had been prepared as described above, for 1 minute. After the test liquid treated the seeds of peanut was dried with a paper towel, a filter paper moistened with 1 ml of water was placed on a bottom of polyethylene cup and then the seeds of peanut was placed on it. Six to eight adults of Eysarcoris lewisi were set free in the polyethylene cup, which was then kept covered and left in a greenhouse at 25° C. On the 7th day after the release of Eysarcoris lewisi, the number of dead pests and moribund pests was examined.

Test [2] concerns Ctenocephalides felis. As to the kind of experiment: Pesticidal test against Ctenocephalides felis, treated filter paper (Test Example 9). To be noted: 200 mg/m^2 on filter paper (acetone solution), twenty adults, after 24 hours. How it is done: Each of the compound 8, 15, 19, 21 and 34 was dissolved in acetone to give a 0.2 ml solution of 0.114% w/w, which was uniformly treated on a filter paper having 3.8cm in diameter, and air-dried. The amount of active ingredient was 200 mg/m^2. The filter paper was filled in a lid of a 200 ml glass bottle. Twenty adult Ctenocephalides felis (cat flea) were released in the glass bottle, which was followed by covering with the lid. The glass bottle was upset for making the fleas contact with the filter paper. After 24 hours, the mortality was examined.

The test system of test [3] is Leptinotarsa decemlineata. As to the kind of experiment: Pesticidal test against Leptinotarsa decemlineata, eggplant leaf dip (Test Example 5). To be noted: foliar, 120 h, eggplant leaf immersed 1 minute, second-instar larvae, 5th day after release, read-out: rate of dead or moribund pests. How it is done: A leaf of eggplant was immersed in the test liquid, which had been prepared as described above, for 1 minute. After the test liquid treated the leaf of eggplant was dried with a paper towel, the leaf of eggplant was placed in a polyethylene cup of 3 cm in diameter. One second-instar larvae of Leptinotarsa decemlineata (Colorado potato beetle) were set free in the polyethylene cup, which was then kept covered and left in a greenhouse at 25° C. This test was done ten times for one compound. On the 5th day after the release of Leptinotarsa decemlineata, the number of dead pests and moribund pests was examined.

Test [4] deals with Musca domestica. As to the kind of experiment: Pesticidal test against Musca domestica, filter paper with sucrose bait (Test Example 6). To be noted: 500 ppm, 0.7 ml on filter paper, ten female adults, after 24 hours, read-out: mortality. On the procedure:
Ten female adults of Musca domestics (house fly) were set free in the polyethylene cup, which was then kept covered. After 24 hours, their survival was examined to determine the mortality.

Structures are written as SMILES.

As usually defined, the mortality is the percentage killed. Turning to `N#CC(C#N)(CCC(F)(F)F)Cc1ccc(Cl)c(Cl)c1` [Compound 21, 2-(3,4-dichlorobenzyl)-2-(3,3,3-trifluoropropyl)malononitrile], in test [1], the pest or weed control at 100 ppm came to 100%. For the same compound, in test [2], the mortality at 200 mg/m2 amounted to 100%. For the same compound, the pest or weed control at 1.6 ppm in test [3] is greater than 80%. The mortality at 500 ppm in test [4] is 100%.
Take `N#CC(C#N)(CCC(F)(F)C(F)(F)F)Cc1ccc(C(F)(F)F)cc1` [Compound 8, 2-(3,3,4,4,4-pentafluorobutyl)-2-(4-(trifluoromethyl)benzyl)malononitrile]: in test [1], the pest or weed control at 100 ppm amounted to 100%. In test [2], the mortality at 200 mg/m2 came out at 100%. In test [3], the pest or weed control at 1.6 ppm was greater than 80%. Also, in test [4], the mortality at 500 ppm was determined as 100%.
In test [2], `N#CC(C#N)(CCC(F)(F)F)Cc1ccc(F)c(F)c1` [Compound 19, 2-(3,4-difluorobenzyl)-2-(3,3,3-trifluoropropyl)malononitrile] returned a mortality at 200 mg/m2 of 100%. Moreover, in test [4], the mortality at 500 ppm is 100%.
Consider `CSc1ccc(CC(C#N)(C#N)CCC(F)(F)F)cc1` [Compound 34, 2-(4-(methylthio)benzyl)-2-(3,3,3-trifluoropropyl)malononitrile], for which the mortality at 200 mg/m2 in test [2] was determined as 100%. For the same compound, in test [4], the mortality at 500 ppm is 100%.
`N#CC(C#N)(CCC(F)(F)F)Cc1ccc(Cl)cc1` [Compound 15, 2-(4-chlorobenzyl)-2-(3,3,3-trifluoropropyl)malononitrile] yielded a mortality at 200 mg/m2 in test [2] of 100%. In addition, the pest or weed control at 1.6 ppm in test [3] is greater than 80%. For the same compound, in test [4], the mortality at 500 ppm was found to be 100%.

(Values after patent US7402691B2, “Malononitrile compounds and their use as pesticides” (Sumitomo Chemical Company, Limited, priority 2001, dated 2008).)
